Measured values taken from patent US7582762B2, “Salt and crystalline forms of (2R)-anti-5-{3-[4-(10,11-difluoromethanodibenzosuber-5-YL)piperazin-1-YL]-2-hydroxypropoxy}quinoline” (Eli Lilly and Company, priority 2001, dated 2009).
“Also recorded” adds a separate entry of the source. Structures can show the parent of a compound that is named as a salt.

Experiments:
[1] = Incorporation of organic solvents into the crystal lattice; type: physicochemical; details: compared with trihydrochloride salt/crystal (Form I)
[2] = Moisture sorption profile over relative humidity; type: physicochemical; details: over a wide range of relative humidity; compared with trihydrochloride salt/crystal (Form I)
[3] = Thermodynamic stability of salt and crystal forms; details: for thermodynamic stability relative to trihydrochloride (Form I): compared with trihydrochloride salt/crystal (Form I), hydrochloride

For `Cl.Cl.Cl.Cl.Cl.O[C@@H](COc1cccc2ncccc12)CN1CCN(C2c3ccccc3C3C(c4ccccc42)C3(F)F)CC1.O[C@@H](COc1cccc2ncccc12)CN1CCN(C2c3ccccc3C3C(c4ccccc42)C3(F)F)CC1` (stereo partly drawn) [2.5 salt, (2R)-anti-5-{3-[4-(10,11-difluoromethanodibenzosuber-5-yl)piperazin-1-yl]-2-hydroxypropoxy}quinoline 2.5 hydrochloride], the “incorporation of organic solvents” value [1] was “do not incorporate organic solvents as readily as the trihydrochloride salt and crystal” and the “moisture sorption (water sorbed)” value [2] was “sorb less water overall over a wide range of relative humidity”.

In the case of `O[C@@H](COc1cccc2ncccc12)CN1CCN([C@@H]2c3ccccc3[C@@H]3[C@H](c4ccccc42)C3(F)F)CC1` [Form II, (2R)-anti-5-{3-[4-(10,11-difluoromethanodibenzosuber-5-yl)piperazin-1-yl]-2-hydroxypropoxy}quinoline 2.5 hydrochloride], the “incorporation of organic solvents” value ([1]; hydrochloride) is reported as “do not incorporate organic solvents as readily as Form I; also recorded: do not incorporate organic solvents as readily as the trihydrochloride salt and crystal”, the “thermodynamic stability relative to trihydrochloride (Form I)” value [3] is reported as “thermodynamically more stable than Form I; also recorded: thermodynamically more stable than the trihydrochloride salt and crystal” and the most stable form ([3]; organic solutions and solid state at ambient temperature/relative humidity) is reported as “most stable in organic solutions and in the solid state at ambient temperature/relative humidity”. For the same compound, the “moisture sorption (water sorbed)” value [2] was “sorb less water overall over a wide range of relative humidity”.

In the case of `O[C@@H](COc1cccc2ncccc12)CN1CCN([C@@H]2c3ccccc3[C@@H]3[C@H](c4ccccc42)C3(F)F)CC1` [Form III, (2R)-anti-5-{3-[4-(10,11-difluoromethanodibenzosuber-5-yl)piperazin-1-yl]-2-hydroxypropoxy}quinoline 2.5 hydrochloride], the “incorporation of organic solvents” value ([1]; hydrochloride) is reported as “do not incorporate organic solvents as readily as Form I; also recorded: do not incorporate organic solvents as readily as the trihydrochloride salt and crystal”, the most stable form ([3]; aqueous and acidic media) is reported as “most stable in aqueous and acidic media” and the “thermodynamic stability relative to trihydrochloride (Form I)” value [3] is reported as “thermodynamically more stable than Form I; also recorded: thermodynamically more stable than the trihydrochloride salt and crystal”. For the same compound, the “moisture sorption (water sorbed)” value [2] was “sorb less water overall over a wide range of relative humidity”.
